IC50, MIC50 and Km data for six compounds are collected here from article PMC8237569 (Proceedings of the National Academy of Sciences of the …, 2021).

One data set deals with F-ATP synthase. To be noted: read-out: IC50 against F-ATP synthase; cited from earlier work.
The subject of data set [1] is M. tuberculosis H37Rv (ATCC 27294), wt. Briefly: microbe, parasite or virus in culture. It is filed as cell-based. The conditions noted are these: Mycobacterium tuberculosis, ATCC27294|H37RV.
The subject of data set [2] is NC1=NC2(CCCCC2)N(c2ccc(OCc3cn(CCCCOc4ccc5ccc(=O)oc5c4)nn3)cc2)C(N)=N1. Briefly: purified protein, by the assay type. The conditions noted are these: pH 7.5.

≈ marks a conversion by molar mass, not a printed value. Where two headings read alike, the source gives them in different places.

A word on the IC50: it is the midpoint of a concentration-inhibition curve. In the case of `COc1nc2ccc(Br)cc2cc1[C@@H](c1ccccc1)[C@@](O)(CCN(C)C)c1cccc2ccccc12` [Bedaquiline], the IC50 with F-ATP synthase was 2.5 nM.
`NNC(=O)c1ccncc1` [INH, isoniazid] had an MIC50 in data set [1] of 400 nM (≈ 0.0549 µg/mL).
In turn, `Nc1ccc(C(=O)O)c(O)c1` [PAS, para-aminosalicylic acid] displayed an MIC50 in data set [1] of 200 nM (≈ 0.0306 µg/mL).
The compound `O=[N+]([O-])c1cn2c(n1)OC[C@@H](OCc1ccc(OC(F)(F)F)cc1)C2` [PTM, pretomanid] displayed an MIC50 in data set [1] of 200 nM (≈ 0.0719 µg/mL).
For the compound `CO[C@H]1/C=C/O[C@@]2(C)Oc3c(C)c(O)c4c(O)c(c(/C=N/N5CCN(C)CC5)c(O)c4c3C2=O)NC(=O)/C(C)=C\C=C\[C@H](C)[C@H](O)[C@@H](C)[C@@H](O)[C@@H](C)[C@H](OC(C)=O)[C@@H]1C` [RIF, rifampicin], in data set [1] (read-out: MIC50, RIF (nM)), the MIC50 came out at 1.6 nM (≈ 0.00132 µg/mL).
In general, Km refers to the substrate concentration at which the rate is half of its maximum. For the compound “Ddn (Rv3547) (Mycobacterium tuberculosis H37Rv)”, the Km in data set [2] is 3.47 ± 0.51 µM.
